One series concerns MOLT/DAU-8 cells. In words: cells. The series is classed as cell-based. From the text:
(§1) For this, a selected compound of the formula I, the compound (-)-1,4-dihydro-2,6-dimethyl-4-(3-nitrophenyl)-pyridine-3,5-dicarboxylic acid 3-methyl 5- 3(4,4-diphenyl-1-piperidinyl)-propyl! ester hydrochloride (=compound 1), was investigated in more detail as follows:
(§2) The tumour cell lines MOLT/VCR-5×9 (starting density: 1.14×10^6 cells/ml), MOLT/DAU-8 (starting density: 1.01×10^6 cells/ml) and CCRF CEMVCR1000+(starting density: 2.00×10^6 cells/ml), which are resistant towards the cytostatics vincristine and daunomycin, were incubated for 72.5 to 73.25 hours in accordance with the following test pattern:
(§3) 2. Control with the cytostatic relating to the particular cell line (for the concentrations, see below)
(§4) 4. Compound 1 in concentrations of 10^-6 and 10^-7 M
(§5) 5. Compound 1 in concentrations of 10^-6 and 10^-7 M, together with the cytostatic relating to the particular cell line (for the concentrations, see below).
(§6) The cytostatic concentrations used for the individual cell lines were: […]

For the next series, the system named is MOLT/VCR-5×9 cells. The series is described as follows: cells. The series is classed as cell-based.
Source text: as §1, §2, §3, §4, §5
(§7) The cytostatic concentrations used for the individual cell lines were:
(§8) Vincristine: 5×10^-9 M (for MOLT/VCR-5×9)

In another series the test system is CCRF CEM VCR1000+ cells. The series is described as follows: cells. It counts as cell-based.
Source text: as §1, §2, §3, §4, §5, §6

For series [1], the system named is MOLT/VCR-5×9, MOLT/DAU-8 and CCRF CEM VCR1000+ tumour cell lines.
Source text: as §1, §2, §3, §4, §5, §7, §8

The mark [2] stands for this setting: 73.25 h, read-out: Growth inhibition in %, compound 1 by itself.
The mark [3] stands for this setting: Homo sapiens, CCRF-CEM/VCR-1000, 73.25 h, read-out: Growth inhibition in %, compound 1 by itself.

“And” between values parts separate entries of the source, which are not always exact repeats. Equal values may be shown once. Where a name gives a salt, the structure may show the parent alone.

As a reminder, the inhibition is how much of the control response was suppressed. For the molecule `COc1cccc2c1C(=O)c1c(O)c3c(c(O)c1C2=O)C[C@@](O)(C(C)=O)C[C@@H]3O[C@H]1C[C@H](N)[C@H](O)[C@H](C)O1` [Daunomycin, reference compound], the inhibition at 0.01 µM with MOLT/DAU-8 cells (MOLT/DAU-8, daunomycin 10^-8 M by itself, 72.5 to 73.25 h, vs DMSO control, read-out: Growth inhibition in %, cytostatic by itself) stood at 0%.
On to `CC[C@]1(O)C[C@H]2CN(CCc3c([nH]c4ccccc34)[C@@](C(=O)OC)(c3cc4c(cc3OC)N(C=O)[C@H]3[C@@](O)(C(=O)OC)[C@H](OC(C)=O)[C@]5(CC)C=CCN6CC[C@]43[C@@H]65)C2)C1` [Vincristine, reference compound], for which the inhibition at 0.005 µM in the series with MOLT/VCR-5×9 cells (MOLT/VCR-5 × 9, vincristine 5 × 10^-9 M by itself, 72.5 to 73.25 h, vs DMSO control, read-out: Growth inhibition in %, cytostatic by itself) turned out to be 0%. The inhibition at 1.08 µM in the series with CCRF CEM VCR1000+ cells (Homo sapiens, CCRF-CEM/VCR-1000, CCRF CEM VCR1000+, vincristine 1.08 × 10^-6 M by itself, 72.5 to 73.25 h, vs DMSO control, read-out: Growth inhibition in %, cytostatic by itself) amounted to 0%.
`COC(=O)C1=C(C)NC(C)=C(C(=O)OCCCN2CCC(c3ccccc3)(c3ccccc3)CC2)C1c1cccc([N+](=O)[O-])c1` (single isomer, unassigned; (-)) [Compound 1, (-)-1,4-dihydro-2,6-dimethyl-4-(3-nitrophenyl)-pyridine-3,5-dicarboxylic acid 3-methyl 5-3(4,4-diphenyl-1-piperidinyl)-propyl! ester hydrochloride]: the “Growth inhibition in %, compound 1 + cytostatic” value with MOLT/VCR-5×9 cells is 99; in the series on CCRF CEM VCR1000+ cells (hydrochloride), 65 and 90; in the series with MOLT/DAU-8 cells (hydrochloride) it was 56 and 96. Besides, the inhibition at 0.1 µM was found to be 66% in the series with MOLT/VCR-5×9 cells (setting [2]), 10% in the series with CCRF CEM VCR1000+ cells (setting [3]) and 43% in the series on MOLT/DAU-8 cells (setting [2]). Moreover, the inhibition at 10 µM is 79% with MOLT/VCR-5×9 cells (setting [2]), 67% in the series with CCRF CEM VCR1000+ cells (setting [3]) and 53% in the series with MOLT/DAU-8 cells (setting [2]). The “concentration dependence of growth inhibition (in words)” value in series [1] is “This inhibition of growth depends on the concentration”. The “inhibition of growth by compound 1 by itself (in words)” value in series [1] was “All resistant cells are inhibited in their growth”. Further, in series [1], the “overcoming of resistance and intensification of cytotoxicity (in words)” value is “the resistance towards cytostatics is overcome and the cytotoxicity of the cytostatics is intensified”.
